# Experimental data taken from patent publication US12071414B2, “Apelin receptor agonists and methods of use thereof” (Sanford Burnham Prebys Medical Discovery Institute, priority 2015, dated 2024).
# Test system: isolated rat heart
# Assay: not given
# Settings: read-out: EC50 of positive inotropic effect, in rats, infusion; cited from earlier work
row,Compound,EC50 [nM]
1,apelin-16,~0.033

# Target: T1, human apelin receptor (APJ, AGTRL-one, APLNR) (Homo sapiens, UniProt P35414)
# T1 construct: host or cells: Chinese hamster ovary cells, stably integrated receptor
# T1 sequence (P35414 1-380): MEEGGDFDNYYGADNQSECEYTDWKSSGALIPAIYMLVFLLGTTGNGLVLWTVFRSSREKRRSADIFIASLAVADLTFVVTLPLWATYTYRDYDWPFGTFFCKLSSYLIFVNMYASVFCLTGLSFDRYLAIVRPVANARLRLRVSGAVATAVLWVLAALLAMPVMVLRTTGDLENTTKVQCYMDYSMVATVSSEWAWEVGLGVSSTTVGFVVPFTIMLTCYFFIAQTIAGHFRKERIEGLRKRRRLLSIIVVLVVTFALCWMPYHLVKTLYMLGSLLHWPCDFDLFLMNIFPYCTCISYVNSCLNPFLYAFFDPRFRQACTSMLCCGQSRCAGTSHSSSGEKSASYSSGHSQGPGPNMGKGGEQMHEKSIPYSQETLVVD
# Assay: cell-based cAMP TR-FRET assay of apelin receptor activation
# Settings: CHO cells expressing human APJ, forskolin-stimulated cAMP, 0.5 h incubation, 50% of control (apelin-13, 1 nM) response; read-out: Potency Category (EC50)
# Outline: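 CHO cells stably expressing human APJ were stimulated to raise cAMP, then incubated 0.5 h with compound (0.0-100 μM, ≤1% DMSO). Lysed cAMP measured by competitive TR-FRET immunoassay; efficacy as % of 1 nM apelin-13 response, potency from four-point logistic fit over ≥10 concentrations.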
row,Compound,EC50 [nM]
1,COc1cc2nc(NC(=O)C(Oc3ccc(C#N)cc3)c3ccccc3S(=O)(=O)c3ccc(F)cc3)sc2cc1OC (stereo not shown),200 to 500
2,CCS(=O)(=O)c1ccc(C(C)C(=O)Nc2nc3cc(OC)c(OC)cc3s2)cc1 (stereo not shown),> 500
3,CCS(=O)(=O)c1cccc(C(Oc2ccc(OC)cc2)C(=O)Nc2nc3cc(OC)c(OC)cc3s2)c1 (stereo not shown),> 500
4,COc1cc2nc(NC(=O)C(Oc3ccc(C#N)cc3)c3ccc(C(=O)NCCN(C)C)cc3)sc2cc1OC (stereo not shown),50 to 100
5,COc1cc2nc(NC(=O)Cc3cccc(S(=O)(=O)CC4CC4)c3)sc2cc1OC,> 500
6,COc1cc2nc(NC(=O)C(Oc3ccc(C#N)cc3)c3cccc(S(=O)(=O)Cc4ccccc4)c3)sc2cc1OC (stereo not shown),< 50
7,COc1cc2nc(NC(=O)C(Oc3ccc(C#N)cc3)c3ccc(C(=O)NCCN4CCCC4)cc3)sc2cc1OC (stereo not shown),200 to 500
8,COc1cc2nc(NC(=O)C(Oc3ccc(C#N)cc3)c3ccc([N+](=O)[O-])cc3)sc2cc1OC (stereo not shown),< 50
9,COc1cc2nc(NC(=O)C(Oc3ccc(C(=O)NCCN4CCOCC4)cc3)c3ccc(C#N)cc3)sc2cc1OC (stereo not shown),200 to 500
10,COC(=O)c1ccc(OC(C(=O)Nc2nc3cc(OC)c(OC)cc3s2)c2ccc(C#N)cc2)cc1 (stereo not shown),< 50
11,COc1cc2nc(NC(=O)C(Oc3ccc(C(=O)N4CCN(C)CC4)cc3)c3ccc(C#N)cc3)sc2cc1OC (stereo not shown),50 to 100
12,COC(=O)c1ccc(CC(=O)Nc2nc3cc(OC)c(OC)cc3s2)cc1,> 500
13,COc1ccc(OC(C(=O)Nc2nc3cc(OC)c(OC)cc3s2)c2ccc(C#N)cc2)cc1 (stereo not shown),< 50
14,CCS(=O)(=O)c1ccc(CC(=O)Nc2nc3c4c(ccc3s2)OCO4)cc1,> 500
15,COc1cc2nc(NC(=O)C(Oc3ccc(O)cc3)c3ccc(C#N)cc3)sc2cc1OC (stereo not shown),> 500
16,COc1cc2nc(NC(=O)C(Oc3ccc(-c4nnn[nH]4)cc3)c3ccc(C#N)cc3)sc2cc1OC (stereo not shown),> 500
17,CCS(=O)(=O)c1ccc(C(Nc2ccc(OC)cc2)C(=O)Nc2nc3cc(OC)c(OC)cc3s2)cc1 (stereo not shown),> 500
18,COc1ccc(OC(C(=O)Nc2nc3cc(OC)c(OC)cc3s2)c2cccc(S(=O)(=O)c3ccc(F)cc3)c2)cc1 (stereo not shown),> 500
19,CCS(=O)(=O)c1ccc(C(OC2CCCCC2)C(=O)Nc2nc3cc(OC)c(OC)cc3s2)cc1 (stereo not shown),> 500

row,Compound,EC50 [nM]
1,COCCNC(=O)c1ccc(OC(C(=O)Nc2nc3cc(OC)c(OC)cc3s2)c2ccc(C#N)cc2)cc1 (stereo not shown),> 500
2,COc1cc2nc(NC(=O)Cc3cccc(S(=O)(=O)C(C)C)c3)sc2cc1OC,> 500
3,CCS(=O)(=O)c1ccc(C(Oc2cccc3ccccc23)C(=O)Nc2nc3cc(OC)c(OC)cc3s2)cc1 (stereo not shown),> 500
4,COc1cc2nc(NC(=O)C(Oc3ccc(C#N)cc3)c3ccc(C(=O)NCCN4CCOCC4)cc3)oc2cc1OC (stereo not shown),200 to 500
5,COc1ccc(S(=O)(=O)c2ccccc2C(Oc2ccc(C#N)cc2)C(=O)Nc2nc3cc(OC)c(OC)cc3s2)cc1 (stereo not shown),100 to 200
6,COc1cc2nc(NC(=O)C(Oc3ccc(C#N)cc3)c3ccc(C(=O)NCCN4CCCCC4)cc3)sc2cc1OC (stereo not shown),< 50
7,CCS(=O)(=O)c1ccc(CC(=O)Nc2nc3cc(OC)c(OC)cc3s2)cc1,200 to 500
8,CCS(=O)(=O)c1ccc(CC(=O)Nc2nc3cc(OC)c(O)cc3[nH]2)cc1,> 500
9,CCCCS(=O)(=O)c1cccc(C(Oc2ccc(C#N)cc2)C(=O)Nc2nc3cc(OC)c(OC)cc3s2)c1 (stereo not shown),50 to 100
10,COc1cc2nc(NC(=O)C(Oc3ccc(C#N)cc3)c3ccc(OCCN(C)C)cc3)sc2cc1OC (stereo not shown),< 50
11,CCS(=O)(=O)c1ccc(C(OC)C(=O)Nc2nc3cc(OC)c(OC)cc3s2)cc1 (stereo not shown),> 500
12,CCS(=O)(=O)c1ccc(C2(C(=O)Nc3nc4cc(OC)c(OC)cc4s3)CC2)cc1,> 500
13,CCCOC(C(=O)Nc1nc2cc(OC)c(OC)cc2s1)c1ccc(S(=O)(=O)CC)cc1 (stereo not shown),> 500
14,CCS(=O)(=O)c1ccc(C(Oc2cccc(OC)c2)C(=O)Nc2nc3cc(OC)c(OC)cc3s2)cc1 (stereo not shown),> 500
15,CCS(=O)(=O)c1ccc(C(Oc2ccc(C3CCCCC3)cc2)C(=O)Nc2nc3cc(OC)c(OC)cc3s2)cc1 (stereo not shown),> 500
16,CCS(=O)(=O)c1ccc(CC(=O)Nc2nc3cc4c(cc3s2)OCCO4)cc1,> 500
17,CCS(=O)(=O)c1ccc(C(Nc2ccc(C)cc2)C(=O)Nc2nc3cc(OC)c(OC)cc3s2)cc1 (stereo not shown),> 500
18,CCS(=O)(=O)c1ccc(C(Nc2ccccc2OC)C(=O)Nc2nc3cc(OC)c(OC)cc3s2)cc1 (stereo not shown),> 500
19,COc1cc2nc(NC(=O)C(Oc3ccc(C#N)cc3)c3ccc(C(F)(F)F)cc3)sc2cc1OC (stereo not shown),> 500

# More lines, now with the values ahead:
row,EC50 [nM],Compound
1,< 50,CCS(=O)(=O)c1ccc(C(Oc2ccc(C#N)cc2C)C(=O)Nc2nc3cc(OC)c(OC)cc3s2)cc1 (stereo not shown)
2,200 to 500,CCS(=O)(=O)c1ccc([C@H](Oc2ccc(C#N)cc2)C(=O)Nc2nc3cc(OC)c(OC)cc3s2)cc1
3,> 500,CCS(=O)(=O)c1ccc(C(Oc2ccc(C#N)cc2)C(=O)Nc2cc3cc(OC)c(OC)cc3[nH]2)cc1 (stereo not shown)
4,100 to 200,CCS(=O)(=O)c1ccc(C(Oc2ccc(Cl)cc2)C(=O)Nc2nc3cc(OC)c(OC)cc3s2)cc1 (stereo not shown)
5,> 500,CCS(=O)(=O)c1ccc(C(Oc2ccc(C#N)cc2)C(=O)Nc2nc3cc4c(cc3s2)OCCO4)cc1 (stereo not shown)
6,> 500,CCS(=O)(=O)c1cccc(C(Oc2ccc(C#N)cc2)C(=O)Nc2nc3ccc(OCCOC)cc3s2)c1 (stereo not shown)
7,50 to 100,CCS(=O)(=O)c1ccc(C(Oc2ccc(C#N)cc2)C(=O)Nc2nc3ccc(C)c(OC)c3s2)cc1 (stereo not shown)
8,< 50,CCS(=O)(=O)c1ccc(C(Nc2ccc(C#N)cc2)C(=O)Nc2nc3cc(OC)c(OC)cc3s2)cc1 (stereo not shown)
9,< 50,COc1cc2nc(NC(=O)C(Oc3ccc(C#N)cc3)c3ccc(S(=O)(=O)CC4CC4)cc3)sc2cc1OC (stereo not shown)
10,< 50,CCS(=O)(=O)c1ccc(C(Oc2ccc(C#N)cc2)C(=O)Nc2nc3ccc(OC)c(OC(C)C)c3s2)cc1 (stereo not shown)
11,< 50,CCS(=O)(=O)c1ccc(C(Oc2ccc(C#N)cc2)C(=O)Nc2nc3cc(OC)c(OC)cc3s2)cc1 (stereo not shown)
12,200 to 500,CCS(=O)(=O)c1ccc(C(Oc2ccc(C#N)cc2)C(=O)Nc2nc3cc(OCCO)c(OC)cc3s2)cc1 (stereo not shown)
13,> 500,CCS(=O)(=O)c1ccc(C(Oc2ccc(C#N)cc2)C(=O)Nc2nc3ccc(N4CCN(C)CC4)cc3s2)cc1 (stereo not shown)
14,200 to 500,COc1cc2nc(NC(=O)C(Oc3ccc(C#N)cc3)c3ccc(S(=O)(=O)c4ccc(Cl)cc4)cc3)sc2cc1OC (stereo not shown)
15,200 to 500,CCS(=O)(=O)c1ccc(C(Oc2ccc(Br)cc2)C(=O)Nc2nc3cc(OC)c(OC)cc3s2)cc1 (stereo not shown)
16,> 500,CCCCOc1ccc(OC(C(=O)Nc2nc3cc(OC)c(OC)cc3s2)c2ccc(S(=O)(=O)CC)cc2)cc1 (stereo not shown)
17,> 500,CCN(CC)c1ccc2sc(NC(=O)C(Oc3ccc(C#N)cc3)c3ccc(S(=O)(=O)CC)cc3)nc2c1 (stereo not shown)

row,EC50 [nM],Compound
1,200 to 500,COc1cc2nc(NC(=O)C(Oc3ccc(C#N)cc3)c3ccc(S(=O)(=O)Cc4ccccc4)cc3)sc2cc1OC (stereo not shown)
2,> 500,CCS(=O)(=O)c1ccc(C(Oc2ccc(C#N)cc2)C(=O)Nc2nc3cc(OC)c(Cl)cc3s2)cc1 (stereo not shown)
3,200 to 500,CCS(=O)(=O)c1ccc(C(Oc2ccc(C(F)(F)F)cc2)C(=O)Nc2nc3cc(OC)c(OC)cc3s2)cc1 (stereo not shown)
4,> 500,CCS(=O)(=O)c1ccc(C(Oc2ccc(C#N)cc2)C(=O)Nc2nc3cc4c(cc3s2)OCO4)cc1 (stereo not shown)
5,> 500,CCS(=O)(=O)c1ccc(C(Oc2ccc(C#N)cc2)C(=O)Nc2nc3cnc(OC)cc3s2)cc1 (stereo not shown)
6,> 500,CCS(=O)(=O)c1ccc(C(Oc2ccc(C#N)cc2)C(=O)Nc2nc3c4c(ccc3s2)OCO4)cc1 (stereo not shown)
7,> 500,CCS(=O)(=O)c1ccc(C(Oc2ccc(C#N)cc2)C(=O)Nc2nc3c4c(ccc3s2)OCCO4)cc1 (stereo not shown)
8,> 500,CCS(=O)(=O)c1ccc(C(Oc2ccc(C#N)cc2)C(=O)Nc2nc3ccc(F)c(OC)c3s2)cc1 (stereo not shown)
9,< 50,COc1cc2nc(NC(=O)C(Oc3ccc(C#N)cc3)c3ccc(S(=O)(=O)NCCN(C)C)cc3)sc2cc1OC (stereo not shown)
10,200 to 500,CCS(=O)(=O)c1ccc(C(Oc2ccc(N(C)C)cc2)C(=O)Nc2nc3cc(OC)c(OC)cc3s2)cc1 (stereo not shown)
11,50 to 100,CCS(=O)(=O)c1ccc(C(Oc2ccc(C#N)cc2)C(=O)Nc2nc3c(OC)ccc(OC)c3s2)cc1 (stereo not shown)
12,> 500,CCS(=O)(=O)c1ccc(C(Oc2cccc(C)c2)C(=O)Nc2nc3cc(OC)c(OC)cc3s2)cc1 (stereo not shown)
13,100 to 200,COc1ccc(S(=O)(=O)c2ccc(C(Oc3ccc(C#N)cc3)C(=O)Nc3nc4cc(OC)c(OC)cc4s3)cc2)cc1 (stereo not shown)
14,50 to 100,CCS(=O)(=O)c1ccc(C(Oc2ccc(C#N)cc2)C(=O)N(C)c2nc3cc(OC)c(OC)cc3s2)cc1 (stereo not shown)
15,> 500,CCS(=O)(=O)c1ccc(C(Oc2ccc(OCc3ccccc3)cc2)C(=O)Nc2nc3cc(OC)c(OC)cc3s2)cc1 (stereo not shown)
16,> 500,CCS(=O)(=O)c1ccc(C(Oc2ccc(C#N)cc2)C(=O)Nc2nc3ccc(N4CCOCC4)cc3s2)cc1 (stereo not shown)

# Test system: heart
# Assay: not given
# Settings: read-out: EC50 of positive inotropic effect; in humans; cited from earlier work
row,Compound,EC50 [nM]
1,apelin-16,0.04 to 0.125
